Measured values: patent US11370847B2, “Single domain antibodies directed against intracellular antigens” (Singh Biotechnology, LLC, priority 2014, dated 2022)

Legend:
[1] = test system: endogenous STAT3; assay: Immunoprecipitation from cell lines with constitutively activated STAT3; type: binding, human (PANC-1 and DU145) and murine (4T1)
Protocol: Commercial HeLa cells were also treated with interferon gamma (INFΓ) in order to induce phosphorylated STAT3. The PC-3 STAT3 null cell line was used as a negative control.
The cells were grown to 50% to 70% confluence, then disrupted in freshly prepared ice-cold lysis buffer as described above for 45 minutes on ice. Lysates were then centrifuged, the supernatant collected, and protein concentration was determined as described above. […] Beads were then washed. Following the final wash, 60 μl of lysis buffer was added, and the resulting supernatant was subject to Western Blot analysis as described in Example 2.

[2] = test system: DU145 xenograft; assay: DU145 prostate cancer xenograft model; details: SBT-100 5 mg/kg bw i.p. BID×14
[3] = test system: SJSA-1 cells; assay: MTT proliferation assay, SJSA-1; type: cell-based, human; details: for Mean Abs (±SD): 72 hours
[4] = test system: MDA-MB 231 cells; assay: Internalization of sdAb, anti-His staining, MDA-MB 231; type: cell-based; details: 18 hours after sdAb addition
Protocol: The next day, the chambers were rinsed with fresh media and STAT3 VHH13 (SEQ ID NO:3) sdAb (diluted 1:10 in media) or TNF-α VHH66 (SEQ ID NO:45) sdAb was added to the chamber. An anti-HIV-1 Reverse Transcriptase (RT) sdAb was used as a negative control.
The slides were incubated for 18 hours after sdAb addition. The chambers were briefly rinsed with media and fixed in ice-cold methanol for 5-10 min. The chambers were then dried and stained with a fluorescent anti-His tag antibody (1:200) (Novus Biologicals, Littleton, Colo.) for 45 min at room temperature. The slides were rinsed in PBS for 5 minutes and mounted.

anti-STAT3 VHH13: anti-STAT3 single-domain antibody, SEQ ID NO:3; bacterially produced, referred to as SBT-100
binding to Phospho-STAT3 ([1]; HeLa lysate (interferon gamma treated)): bound
immunoprecipitation of endogenous STAT3 ([1]; PANC-1, DU145 and 4T1 lysates): immunoprecipitated
immunoprecipitation in STAT3 null cell line ([1]; PC-3 (negative control)): No bands
% treatment/control [2]: 74.8%
mean tumor size (±S.E.) at termination (day 28) [2]: 601.83±131.51
mean tumor size (±SE) at last day of dosing (Day 14) [2]: 364.14±51.64
tumor doubling time ([2]; control 14.57 days): 18.19 days
mean tumor growth inhibition at the end of the study ([2]; p=0.29): 26.6%
IC50 ([3]; SJSA, 72 hr): IC50 = 51 μg/ml
Mean Abs (±SD) ([3]; Table 72 (experiment 5a), SBT-100 3.13 μg/ml alone): 0.278 ± 0.057
Mean Abs (±SD) ([3]; Table 72 (experiment 5a), SBT-100 6.25 μg/ml alone): 0.258 ± 0.097
Mean Abs (±SD) ([3]; Table 72 (experiment 5a), SBT-100 25 μg/ml alone): 0.221 ± 0.034
Mean Abs (±SD) ([3]; Table 72 (experiment 5a), SBT-100 50 μg/ml alone): 0.066 ± 0.003
Mean Abs (±SD) ([3]; Table 72 (experiment 5a), SBT-100 100 μg/ml alone): 0.058 ± 0.002
Mean Abs (±SD) ([3]; Table 73 (Experiment 2, 5b), SBT-100 3.13 μg/ml alone): 0.774 ± 0.068
Mean Abs (±SD) ([3]; Table 73 (Experiment 2, 5b), SBT-100 6.25 μg/ml alone): 0.835 ± 0.058
Mean Abs (±SD) ([3]; Table 73 (Experiment 2, 5b), SBT-100 25 μg/ml alone): 0.781 ± 0.057
Mean Abs (±SD) ([3]; Table 73 (Experiment 2, 5b), SBT-100 50 μg/ml alone): 0.460 ± 0.038
Mean Abs (±SD) ([3]; Table 73 (Experiment 2, 5b), SBT-100 100 μg/ml alone): 0.091 ± 0.002
staining with fluorescent anti-His tag antibody [4]: positive cytoplasmic staining
